What was measured:
[1] = tested on: fed mice; test: Blood glucose after i.p. glucose challenge, fed mice; format: in vivo
Protocol: (§1) Male C57BL/6 mice weighing 25 ± 3 g were provided by Harlan. Space allocation for five animals was 29 x 18 x 13 cm. All animals were maintained in a controlled temperature (21-23 °C) and humidity (50-70%) environment on a 12-hour light/dark cycle for 7 days in the animal facilities. Free access to standard chow for mice and reverse osmosis water were given. All aspects of this work, including housing, experimentation and disposal of animals, were performed in general accordance with the Guide for the Care and Use of Laboratory Animals.
(§2) Then, the blood glucose concentrations were measured at 15, 30, 60, 90, and 120 minutes after the glucose injection (Glucometer and Reactive Strips Accu-chek Aviva, Roche) [Zhang, W. et al. Pharmacol Res 2011, 63: 284-93]. Free access to food and water was maintained throughout the study. Under fasting conditions, mice were deprived of food 4 hours before and during the experiment and the experimental protocol was followed as detailed above.

[2] = tested on: fasted mice; test: Blood glucose after i.p. glucose challenge, fasted mice; format: in vivo; settings: oral
Protocol: as §1, §2

[3] = tested on: streptozotocin-induced diabetic mice; test: Blood glucose in mice with streptozotocin-induced diabetes; format: in vivo; settings: for reduction in blood glucose concentrations when compared to basal values: range over the experimental time points
Protocol: as §1
In mice with streptozotocin-induced diabetes [Tokunaga, H. et al. Eur J Pharmacol 1983, 87(2-3): 237-43], diabetes was induced with a […] i.p. injection of streptozotocin (Sigma) 50 mg/kg body weight, freshly dissolved in NaCl 0.9% during 5 consecutive days. After 4 weeks, those mice (80%) with basal glucose concentrations under fasting (4 hours) conditions above 220 mg/dL were included in the assay. The test substance, positive and negative controls were administered by the p.o. route 30 minutes before measurement of the blood glucose concentrations at 0, 15, 30, 60, 90, and 120 minutes. Free access to water was maintained throughout the study.

[4] = tested on: Syrian hamster embryo (SHE) cell, BALB/c 3T3, and CH310T1/2; test: Cell transformation assays (CTAs), carcinogenic assessment; format: cell-based; settings: CTA assays, compared with structurally related compounds with carcinogenic potential
Source text: Carcinogenic potential may arise from a direct genotoxic effect or nongenotoxic effects. Epigenetic factors may contribute to tumor cell proliferation by routes other than a direct interaction with DNA. In that case, xenobiotics may act as cancer promoters in species other than those employed in preclinical drug development. Cell transformation assays (CTAs), including the main in vitro CTAs --the Syrian hamster embryo (SHE) cell, BALB/c 3T3, and CH310T1/2 assays-- are experimental tools reviewed by the OECD [Environment, Health and Safety Publications, Series on Testing and Assessment nº 31. Detailed review paper on cell transformation assays for detection of chemical carcinogens. November 28, 2006].

[5] = Maximum tolerated dose after single oral administration; settings: mouse, in vivo, mice, observed up to 72 hours
Protocol: The maximum tolerated dose (MTD) was assessed in mice after single oral administration of high doses of Example 1 of 1 g/kg, 500 mg/kg, and 100 mg/kg, and the development of acute toxic symptoms (mortality, convulsions, tremors, muscle relaxation, sedation, etc.) and autonomic effects (diarrhea, salivation, lacrimation, vasodilation, piloerection, etc.) was observed during the first hour. The animals were then observed again for mortality at 3, 24, 48, and 72 hours. The mice were sacrificed if they lost more than 20% of their body weight or if there were other signs of significant toxicity. The MTD obtained for Example 1 in the above experimental conditions was 1 g/kg.

[6] = tested on: human platelet-rich plasma; test: Platelet aggregation inhibition after induction by ADP, arachidonic acid or collagen; format: cell-based; settings: different concentrations
Protocol: Platelet aggregation inhibition was evaluated after the induction of aggregation by ADP, arachidonic acid or collagen in human platelet-rich plasma [Bertele, V. et al. Science 1983, 220(4596): 517-9; Knöfler, R. et al. Thromb Res 1995, 77(1): 69-78]. […] Platelet function was additionally tested under rheological conditions in human whole blood using a platelet function test device, PFA-100 [Frossard, M. et al. Circulation 2004, 110(11): 1392-7; Hennekens, C.H. et al. Circulation 2004, 110(12): 1706-8]. An increase (26%-30%) in aggregation time in the presence of collagen-epinephrine was noted, indicating platelet aggregation-inhibitory activity for compounds in examples 1 to 12 at 1 µM concentration under rheological conditions.

| Structure (SMILES) | decrease in blood glucose concentrations ([1]; fed, positive control, dose not given, 90 minutes after glucose challenge) | decrease in blood glucose concentrations ([1]; fed, positive control, dose not given, 120 minutes after glucose challenge) | decrease in blood glucose concentrations ([2]; fasted mice, after i.p. glucose challenge (1 g/kg)) | hypoglycemic activity ([2]; fasted, 0.3 mg/kg) | hypoglycemic effect ([3]; 0.1 mg/kg) | reduction in blood glucose concentrations when compared to basal values ([3]; 3 mg/kg oral) | reduction in blood glucose concentrations when compared to basal values ([3]; 30 mg/kg oral) | reduction in blood glucose concentrations when compared to basal values ([3]; 300 mg/kg oral) | decrease in blood glucose concentrations ([3]; mice with streptozotocin-induced diabetes, oral) | carcinogenic potential [4] | decrease in blood glucose concentrations ([1]; fed mice, oral, after i.p. glucose challenge (1 g/kg)) | reduction in blood glucose concentrations when compared to basal values ([1]; fed, single oral dose 3 mg/kg, 90 minutes after glucose challenge) | reduction in blood glucose concentrations when compared to basal values ([1]; fed, single oral dose 3 mg/kg, 120 minutes after glucose challenge) | reduction in blood glucose concentrations when compared to basal values ([1]; fed, single oral dose 30 mg/kg, 90 minutes after glucose challenge) | reduction in blood glucose concentrations when compared to basal values ([1]; fed, single oral dose 30 mg/kg, 120 minutes after glucose challenge) | reduction in blood glucose concentrations when compared to basal values ([1]; fed, single oral dose 300 mg/kg, 90 minutes after glucose challenge) | reduction in blood glucose concentrations when compared to basal values ([1]; fed, single oral dose 300 mg/kg, 120 minutes after glucose challenge) | MTD at 72 h [5] | inhibition of platelet aggregation [6] |
| --- | --- | --- | --- | --- | --- | --- | --- | --- | --- | --- | --- | --- | --- | --- | --- | --- | --- | --- | --- |
| CCCCNC(=O)NS(=O)(=O)c1ccc(C)cc1 [Tolbutamide, reference compound] | 7.76% | 3.22% | – | – | – | – | – | – | – | – | – | – | – | – | – | – | – | – | – |
| CCc1ccc(Cc2ccc3c(c2)[C@@H]2O[C@H](CO)[C@@H](O)[C@H](O)[C@H]2OC3=O)cc1 [Example 1, (2R,3S,4S,4aR,10bS)-9-(4-Ethylbenzyl)-3,4-dihydroxy-2-(hydroxymethyl)-3,4,4a,10b-tetrahydropyrano[3,2-c][2]benzopyran-6(2H)-one] | – | – | decrease in blood glucose concentrations | hypoglycemic activity | No relevant hypoglycemic effect | 7-22% | 7-26% | 18-42% | decrease in blood glucose concentrations | no carcinogenic potential | decrease in blood glucose concentrations | 12.01% | 9.63% | 6.04% | 4.71% | 2.52% | 10.2% | 1000 mg/kg | inhibition of platelet aggregation |

Source: patent EP2573088A1, “Pyrano[3,2-c]benzopyran-6(2h)-one derivatives and uses thereof” (Prous Institute for Biomedical Research, S.A., priority 2011, dated 2013)
